From patent US10450318B2, “CXCR4 receptor antagonists” (BRISTOL-MYERS SQUIBB COMPANY, priority 2015, dated 2019)

The molecules below were run against T1, CXCR4 receptors (Homo sapiens, UniProt P61073) (assay: CXCR4-CEM calcium flux assay, antagonist mode (inhibition of SDF-1α-induced calcium flux)). Conditions: inhibition of calcium flux induced by 4 nM SDF-1α in CCRF-CEM cells.
T1 construct: expressing endogenous CXCR4 receptors; endogenous in cells; host or cells: CCRF-CEM (human T lymphoblast cells)
T1 sequence (P61073 whole entry): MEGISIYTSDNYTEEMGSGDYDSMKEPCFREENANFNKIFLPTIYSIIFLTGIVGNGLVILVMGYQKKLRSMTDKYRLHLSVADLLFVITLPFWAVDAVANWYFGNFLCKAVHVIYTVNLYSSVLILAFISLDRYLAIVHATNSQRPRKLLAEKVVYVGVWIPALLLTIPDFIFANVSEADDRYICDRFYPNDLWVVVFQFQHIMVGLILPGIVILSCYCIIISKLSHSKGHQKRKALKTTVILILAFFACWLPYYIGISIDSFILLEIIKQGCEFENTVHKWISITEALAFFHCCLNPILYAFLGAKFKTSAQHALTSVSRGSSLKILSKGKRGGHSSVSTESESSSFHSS
Format: cell-based
Procedure, shortened: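 CCRF-CEM cells were preincubated with compound (0.5% DMSO) for 25 min at room temperature, then stimulated with 4 nM SDF-1α. The resulting calcium flux was recorded by FDSS for 90 sec. Percent inhibition was calculated against an internal control compound, and background-corrected EC50 values were derived.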

| Molecule | IC50 [nM] |
| --- | --- |
| CN(Cc1cn2c(N3CC4CCNC4C3)nccc2n1)[C@H]1CCCc2cccnc21 (stereo partly drawn) [Example 93, (8S)-N-((5-(hexahydropyrrolo[3,4-b]pyrrol-5(1H)-yl)imidazo[1,2-c]pyrimidin-2-yl)methyl)-N-methyl-5,6,7,8-tetrahydroquinolin-8-amine] | 27 |
| CN(Cc1cn2c(N3CC4CCNC4C3)nccc2n1)[C@H]1CCCc2cccnc21 (stereo partly drawn) [Example 94, (8S)-N-((5-(hexahydropyrrolo[3,4-b]pyrrol-5(1H)-yl)imidazo[1,2-c]pyrimidin-2-yl)methyl)-N-methyl-5,6,7,8-tetrahydroquinolin-8-amine] | 65 |
| C[C@@H]1CN(c2nccc3nc(CN(C)[C@H]4CCCc5cccnc54)cn23)C[C@H](C)N1C [Example 97, (S)—N-Methyl-N-((5-((3S,5R)-3,4,5-trimethylpiperazin-1-yl)imidazo[1,2-c]pyrimidin-2-yl)methyl)-5,6,7,8-tetrahydroquinolin-8-amine] | 480 |
| CN1CCN(c2nccc3nc(CN(C)[C@H]4CCCc5cccnc54)cn23)C[C@H]1CO [Example 99, ((S)-1-methyl-4-(2-((methyl((S)-5,6,7,8-tetrahydroquinolin-8-yl)amino)methyl)imidazo[1,2-c]pyrimidin-5-yl)piperazin-2-yl)methanol] | 27 |
| CN1CCC2CN(c3nccc4nc(CN(C)[C@H]5CCCc6cccnc65)cn34)CC21 (stereo partly drawn) [Example 100, (8S)-N-methyl-N-((5-(1-methylhexahydropyrrolo[3,4-b]pyrrol-5(1H)-yl)imidazo[1,2-c]pyrimidin-2-yl)methyl)-5,6,7,8-tetrahydroquinolin-8-amine] | 210 |
| CN1CCC2CN(c3nccc4nc(CN(C)[C@H]5CCCc6cccnc65)cn34)CC21 (stereo partly drawn) [Example 101, (8S)-N-methyl-N-((5-(1-methylhexahydropyrrolo[3,4-b]pyrrol-5(1H)-yl)imidazo[1,2-c]pyrimidin-2-yl)methyl)-5,6,7,8-tetrahydroquinolin-8-amine] | 220 |
| CN1CCCC2CN(c3nccc4nc(CN(C)[C@H]5CCCc6cccnc65)cn34)CC21 (stereo partly drawn) [Example 102, (8S)-N-methyl-N-((5-(1-methyloctahydro-6H-pyrrolo[3,4-b]pyridin-6-yl)imidazo[1,2-c]pyrimidin-2-yl)methyl)-5,6,7,8-tetrahydroquinolin-8-amine] | 210 |
| CN1CCCC2CN(c3nccc4nc(CN(C)[C@H]5CCCc6cccnc65)cn34)CC21 (stereo partly drawn) [Example 103, (8S)-N-methyl-N-((5-(1-methyloctahydro-6H-pyrrolo[3,4-b]pyridin-6-yl)imidazo[1,2-c]pyrimidin-2-yl)methyl)-5,6,7,8-tetrahydroquinolin-8-amine] | 260 |
| CN(Cc1nc2ccnc(N3CCN4CCC[C@H]4C3)n2c1CO)[C@H]1CCCc2cccnc21 [Example 108, (5-((S)-Hexahydropyrrolo[1,2-a]pyrazin-2(1H)-yl)-2-((methyl((S)-5,6,7,8-tetrahydroquinolin-8-yl)amino)methyl)imidazo[1,2-c]pyrimidin-3-yl)methanol] | 2.1 |
| (8S)-N-((5-(3-(dimethylamino)pyrrolidin- 1-yl)imidazo[1,2-c]pyrimidin-2- yl)methyl)-N-methyl-5,6,7,8- tetrahydroquinolin-8-amine [Example 75] | 11 |

The remaining lines, values ahead:

| IC50 [nM] | Molecule |
| --- | --- |
| 1.9 | CN1CCN(c2nccc3nc(CN(C)[C@H]4CCCc5cccnc54)cn23)C[C@@H]1CO [Example 98, ((R)-1-methyl-4-(2-((methyl((S)-5,6,7,8-tetrahydroquinolin-8-yl)amino)methyl)imidazo[1,2-c]pyrimidin-5-yl)piperazin-2-yl)methanol] |
| 190 | COc1cc2nc(CN(C)[C@H]3CCCc4cccnc43)cn2c(N2CCNCC2)n1 [Example 104, (S)—N-((7-methoxy-5-(piperazin-1-yl)imidazo[1,2-c]pyrimidin-2-yl)methyl)-N-methyl-5,6,7,8-tetrahydroquinolin-8-amine] |
| 100 | COc1cc2nc(CN(C)[C@H]3CCCc4cccnc43)cn2c(N2CCN(C)CC2)n1 [Example 105, (S)—N-((7-Methoxy-5-(4-methylpiperazin-1-yl)imidazo[1,2-c]pyrimidin-2-yl)methyl)-N-methyl-5,6,7,8-tetrahydroquinolin-8-amine] |
| 370 | COc1nc(N2CCN(C)CC2)n2cc(CN(C)[C@H]3CCCc4cccnc43)nc2c1CO [Example 106, (S)-(7-Methoxy-2-((methyl(5,6,7,8-tetrahydroquinolin-8-yl)amino)methyl)-5-(4-methylpiperazin-1-yl)imidazo[1,2-c]pyrimidin-8-yl)methanol] |
| 29 | NCCCCN(Cc1cn2c(O)nccc2n1)[C@H]1CCCc2cccnc21 [Example 107, (S)-2-(((4-Aminobutyl)(5,6,7,8-tetrahydroquinolin-8-yl)amino)methyl)imidazo[1,2-c]pyrimidin-5-ol] |
